# pIC50: −log10 of the molar value. Like-named read-outs stand apart in the source and are kept apart here.
# What was measured:
# [1] = tested on: murine bone marrow-derived mast cells (BMMCs); assay: In vitro release of Interleukin-6 (IL-6) from IgE-preloaded murine bone marrow-derived mast cells (ELISA); assay type: cell-based, mice; details: Mus musculus, BMMC, 3 h; read-out: percentage of inhibition of IL-6 release
# Experimental: According to the technique established by Razin et al. (Proc. Natl. Acad. Sci. USA 1981, 78:2559-2561), bone marrow cells (1×10^6/ml) from 6 to 8 week old mice (129/Sv×C57BL/6) were cultured (37° C. and 5% CO2) as single cell suspensions in RPMI 1640 medium (Sigma-Aldrich, Munich, Germany) supplemented with 15% fetal calf serum (FCS), 1% X63Ag8-653-conditioned medium (Karasuyama and Melchers, Eur. J. Immunol. 1988, 18:97-104), 2 mM L-glutamine, 10 μM β-mercaptoethanol, 50 units/ml penicillin, and […] streptomycin. At weekly intervals, the non-adherent cells were reseeded at 5×10^5 cells/ml in fresh medium. After 4-6 weeks in culture, greater than 99% of the cells were KIT- and […] as assessed by fluorescence-activated cell sorting (FACS) using phycoerythrin-labeled anti-KIT antibodies (Pharmingen, Mississauga, Canada) and fluorescein isothiocyanate (FITC)-labelled hamster anti-mouse FcεRIα antibodies (eBioscience, Frankfurt, Germany), respectively. The resulting cells are called bone marrow-derived mast cells (BMMCs).
# For degranulation studies, BMMCs were preloaded with 0.15 μg/ml IgE anti-DNP (dinitrophenyl; Sigma Aldrich, Munich, Germany) overnight at 37° C. The cells were then washed and resuspended in Tyrode's buffer (130 mM NaCl, 5 mM KCl, 1.4 mM CaCl2, 1 mM MgCl2, 5.6 mM glucose, and 0.1% bovine serum albumin (BSA) in 10 mM Hepes, pH 7.4).
# Subsequently, the cells were left unstimulated (unst) or stimulated with 20 ng/ml Ag (dissolved in medium) for 3 h. Subsequently, the cells were pelleted by centrifugation and the resulting cell pellet was discarded. For the determination of the amount of degranulated IL-6, the respective supernatant obtained by centrifugation was subjected to an IL-6 ELISA according to the manufacturer's instructions (BD, Heidelberg, Germany). Experiments were performed in triplicate.
# [2] = tested on: human nasal tissue mast cells activated with LPS; assay: Ex vivo LPS-induced tryptase release (degranulation) of human nasal tissue mast cells; assay type: cell-based; details: for Tryptase: with LPS; for inhibition at 3 µM / inhibition at 10 µM / inhibition at 30 µM / inhibition at 60 µM / pIC50: Homo sapiens, Mast cell; for inhibition at 3 µM / inhibition at 10 µM / inhibition at 30 µM / inhibition at 60 µM: read-out: percentage inhibition of degranulation (tryptase); for pIC50: read-out: IC50 ex vivo inhibition of tryptase release; for HillSlope / LogIC50: LPS
# Source text: Fresh human nasal mucosa was used (middle nasal turbinate), which was surgically removed as standard procedure during nose correction surgeries (septorhinoplasty with conchotomy). Only tissues from those patients who had not previously received medication in the form of cortisone preparations or antihistamines were used. The removed tissue was cleansed immediately after the surgical removal with Epilife Medium (Thermo Fisher Scientific, No. […]500), referred to as “medium” in terms of ex vivo experiments, a chemically defined, serum-free full medium for epithelial cells and keratinocytes. The tissue was then cut into 12 pieces of equal size, cleansed again in the medium, and the exact fresh weight of the cut tissue pieces was determined for later normalization and then stored overnight in cold medium. The weight of the tissue pieces varied between 10 and 20 mg.
# After an one hour of pre-incubation with the respective compositions i), ii) or iii), 4 μg/ml lipopolysaccharide (LPS, Sigma-Aldrich GmbH, L4516) was added to each well—except for one well serving as the negative control—in order to induce tryptase degranulation. Then, 250 μl supernatant were taken from each well at the time points of 15 minutes, 60 minutes (one hour), 120 minutes (two hours), 240 minutes (four hours), 480 minutes (eight hours), and 1200 minutes (20 hours) after stimulation with LPS and the supernatants were directly frozen. Immediately after the removal of 250 μl supernatant, the volume in each well was increased to the original level and the original composition by adding 250 μl of the respective composition i), ii) and iii).
# For the determination of the amount of degranulated tryptase, the frozen supernatants were thawed at 22° C. and then subjected to a tryptase ELISA Kit from Boster Biological Technology Co., Ltd (No. EZ0898, Assay Range: 156-10000 pg/ml, Sensitivity: <15 pg/ml) according to manufacturer's instructions, and the ELISA measurements were performed with the Multiskan Go instrument from Thermo Scientific and the SkanIt Re 4.1 software.
# The statistical analysis was conducted in two steps. In a first step, the raw measurement values were normalized to 10 mg tissue. In a second step, a correction factor was introduced for all time points of supernatant removal to compensate for the 250 μl supernatant taken for analysis at each time and the subsequent re-addition of medium incl. factors. The statistical calculations were performed with Microsoft Excel 2010.
# For the analysis, a non-linear regression (variable slope—4-parametric) was used. The program setting “Dose-Response-Inhibition” was applied for an automatic calculation, readout and display of the IC50 values.
# [3] = tested on: patient with therapy-resistant systemic mastocytosis; assay: Human in-vivo off-label clinical test, symptom intensity by visual analog score (VAS)
# Experimental: The results of the clinical test were closely monitored, captured and documented together with patient. The patient is and diagnosed with systemic mastocytosis (WHO criteria, KIT816V positiv) with official diagnosis. […] The current daily treatment of the patient is: H1 antihistamine 3× daily, cromolyn 4×200 mg daily, PPI 110 mg daily, Vitamine C/Vitamine D upon need, Actonel, upon need decortin 40 to 60 mg.
compound,measurement,setting,value
"CCNC1=Nc2ccc(Cl)cc2C(C)(c2ccccc2)O1 (racemic) [Etifoxine, 6-Chloro-2-N-ethyl-4-methyl-4-phenyl-4H-3,1-benzoxazine-2-amine]",inhibition at 3 µM,[1],20%
same,inhibition at 10 µM,[1],48%
same,inhibition at 30 µM,[1],92%
same,Tryptase,"[2]; 3 μM Etifoxine, 15 min",1107.7 pg/ml/10 mg tissue
same,Tryptase,"[2]; 3 μM Etifoxine, 60 min",1822.9 pg/ml/10 mg tissue
same,Tryptase,"[2]; 3 μM Etifoxine, 120 min",2116.7 pg/ml/10 mg tissue
same,Tryptase,"[2]; 3 μM Etifoxine, 240 min",3032.7 pg/ml/10 mg tissue
same,Tryptase,"[2]; 3 μM Etifoxine, 480 min",3622.0 pg/ml/10 mg tissue
same,Tryptase,"[2]; 3 μM Etifoxine, 1200 min",5419.5 pg/ml/10 mg tissue
same,Tryptase,"[2]; 10 μM Etifoxine, 15 min",763.6 pg/ml/10 mg tissue
same,Tryptase,"[2]; 10 μM Etifoxine, 60 min",1252.6 pg/ml/10 mg tissue
same,Tryptase,"[2]; 10 μM Etifoxine, 120 min",2035.3 pg/ml/10 mg tissue
same,Tryptase,"[2]; 10 μM Etifoxine, 240 min",2901.8 pg/ml/10 mg tissue
same,Tryptase,"[2]; 10 μM Etifoxine, 480 min",3275.1 pg/ml/10 mg tissue
same,Tryptase,"[2]; 10 μM Etifoxine, 1200 min",4687.0 pg/ml/10 mg tissue
same,Tryptase,"[2]; 30 μM Etifoxine, 15 min",676.0 pg/ml/10 mg tissue
same,Tryptase,"[2]; 30 μM Etifoxine, 60 min",857.5 pg/ml/10 mg tissue
same,Tryptase,"[2]; 30 μM Etifoxine, 120 min",1619.4 pg/ml/10 mg tissue
same,Tryptase,"[2]; 30 μM Etifoxine, 240 min",2276.4 pg/ml/10 mg tissue
same,Tryptase,"[2]; 30 μM Etifoxine, 480 min",2678.2 pg/ml/10 mg tissue
same,Tryptase,"[2]; 30 μM Etifoxine, 1200 min",3675.9 pg/ml/10 mg tissue
same,Tryptase,"[2]; 60 μM Etifoxine, 15 min",881.1 pg/ml/10 mg tissue
same,Tryptase,"[2]; 60 μM Etifoxine, 60 min",1054.5 pg/ml/10 mg tissue
same,Tryptase,"[2]; 60 μM Etifoxine, 120 min",1592.2 pg/ml/10 mg tissue
same,Tryptase,"[2]; 60 μM Etifoxine, 240 min",2241.2 pg/ml/10 mg tissue
same,Tryptase,"[2]; 60 μM Etifoxine, 480 min",2720.1 pg/ml/10 mg tissue
same,Tryptase,"[2]; 60 μM Etifoxine, 1200 min",3472.1 pg/ml/10 mg tissue
same,inhibition at 3 µM,[2]; 2 h,79%
same,inhibition at 10 µM,[2]; 2 h,83%
same,inhibition at 30 µM,[2]; 2 h,105%
same,inhibition at 60 µM,[2]; 2 h,106%
same,inhibition at 3 µM,[2]; 4 h,104%
same,inhibition at 10 µM,[2]; 4 h,107%
same,inhibition at 30 µM,[2]; 4 h,123%
same,inhibition at 60 µM,[2]; 4 h,124%
same,pIC50,[2]; 2 hours (120 minutes) after LPS addition,4.83
same,pIC50,[2]; 4 hours (240 minutes) after LPS addition,4.82
same,HillSlope,[2]; Tryptase 2 h,−4.183
same,LogIC50,[2]; Tryptase 2 h,1.168
same,HillSlope,[2]; Tryptase 4 h,−4.101
same,LogIC50,[2]; Tryptase 4 h,1.179
same,inhibition of LPS-triggered tryptase degranulation achieved (complete),"[2]; summary statement, mast cells of human nasal pieces",100%
same,total clinical symptom intensity score (VAS),"[3]; after 6 weeks treatment, VAS baseline value 8, scale 0-10",4
same,side effects,"[3]; during the 6 week oral treatment, one patient",No side effects occurred
same,reduction of total clinical symptom intensity score,"[3]; one patient, oral 50 to 150 mg daily, over 6 weeks",50%
